# US6794154B1, “Remedies for kidney diseases and method for screening the same” (Tanabe Seiyaku Co., Ltd., priority 1999, dated 2004)
# Columns and labels:
# [1] = tested on: L-FABP mRNA in human urinary exfoliated cells (human renal tubular epithelial cells); experiment: L-FABP up-regulating activity at mRNA level (RT-PCR) in human urinary exfoliated cells; assay type: cell-based; conditions: 10 μM (Table 1), listed as THA
# Description: Renal tubular epithelial cells exfoliated from kidney tissues into urine (hereafter, referred to as “urinary exfoliated cell”) were isolated from human urine sample and cultured in the following manner. Firstly, urine samples from male infant nephritis patients (0-3 years old) were collected using the clean-catch method. The urine samples were then centrifuged (1000 rpm, 10 minutes) at room temperature and the supernatant was discarded. The pellet was washed with 10% (v/v) fetal calf serum-containing Dulbecco's modified Eagle's medium twice and then with culture medium once. The culture medium used herein was a mixture (1:1) of Dulbecco's modified Eagle's medium and Ham's F-12 medium, to which mixture was added fetal calf serum (10% v/v), insulin (5 μg/ml), transferrin (5 μg/ml), sodium selenite (5 ng/ml), dexamethasone (10^−8 M), nicotinamide (5 mM), penicillin (100 IU/ml) and streptomycin (100 μg/ml). The pellet was suspended into the culture medium, diluted appropriately and then cultured in collagen type 4-coated dish (3.5 cm in diameter, Falcon). The cultivation was performed under the condition of 5% CO2, 37° C. […] Also, in order to normalize the measurement values, rBAT (related to b^0,+ system amino acid transporter; Purroy et. al., Genomics, Vol 37. pp. 249-252, 1996) mRNA was detected as control by RT-PCR.
# [2] = tested on: human L-FABP gene transcriptional regulatory region (luciferase reporter); experiment: L-FABP up-regulating activity by luciferase reporter assay in proximal renal tubular epithelial cell line mProx 37-13; assay type: cell-based; conditions: mProx 37-13 cells, serum-free medium, luciferase measured after 2 to 10 hours; FIG. 4
# Description: A test substance was examined for the L-FABP up-regulating activity by reporter assay method in the following manner using the proximal renal tubular epithelial cell line mProx 37-13 (also referred as “cell line No. 13”) comprising L-FABP reporter DNA construct and was prepared in Example 2 above. Firstly, the cell line mProx 37-13 was added in 96-well flat-bottom plates at 5×10^4 cells/ 100 μl/well and cultured. The cultivation was conducted using plates pre-coated with 0.1% gelatin and, as a medium, a high glucose-containing Dulbecco's MEM medium (Dulbecco's MEM, high glucose; DMEM) (Gibco) supplemented with 10% fetal calf serum, 100 unit/ml of penicillin and 100 μg/ml of streptomycin. […] After additional cultivation, Luciferase activity was detected after 2 to 10 hours. Luciferase activity was measured in the following way. […] After the plate stored at −80° C. was allowed to become room temperature, 100 μl of luminescence substrate solution (PicaGene luminescence kit, TOYO INK) was added to initiate reaction. Amount of luminescence was detected using luminometer (MicroLumat LP98P, BERTHOLD). […] The luciferase induction rate (Luc induction rate) was calculated based on the activity value according to the following equation: Luc induction rate=(test value)/(control value).
# human L-FABP = experiment: L-FABP up-regulating activity at protein level (Western blotting or ELISA) in LLC-PK1 or mouse immortalized renal tubular epithelial cells carrying the human L-FABP chromosomal gene; assay type: cell-based; conditions: 1 μM, serum-free DMEM; anti-human L-FABP antibody
# Description: The plasmid isolated in Example 1, (2) above, which contains human L-FABP chromosomal gene (entire length), was linealized and transfected into the porcine renal tubular cell line LLC-PK1 or mouse immortalized renal tubular epithelial cells prepared in a manner similar to that described in Example 2 (3) above to obtain stable transformed cell lines. The human L-FABP chromosomal gene was integrated into these cells on their chromosome without deletion. Using these cells, L-FABP up-regulating activity of test compounds were examined at RNA level and protein level in the following manner. Cells were cultured to become confluent, when the medium was replaced with serum-free DMEM medium, and test compounds were added to the medium at final concentration of 1 μM. The cultivation was continued at 37° C. Control sample was obtained without adding any test compounds. Measurement at protein level was carried out in the following manner. Cultivated cells were collected and sonicated and then cell extract was prepared. The amount of L-FABP in the extract was detected by Western Blotting method or ELISA method with anti-human L-FABP antibody. […] The up-regulating effect on L-FABP protein expression was also observed when Etomoxir was added.
# human L-FABP mRNA = experiment: L-FABP up-regulating activity at mRNA level (RT-PCR) in LLC-PK1 or mouse immortalized renal tubular epithelial cells carrying the human L-FABP chromosomal gene; assay type: cell-based; conditions: 1 μM, serum-free DMEM; from 15 minute to 24 hour after beginning of cultivation; normalised to GAPDH mRNA
# Description: The plasmid isolated in Example 1, (2) above, which contains human L-FABP chromosomal gene (entire length), was linealized and transfected into the porcine renal tubular cell line LLC-PK1 or mouse immortalized renal tubular epithelial cells prepared in a manner similar to that described in Example 2 (3) above to obtain stable transformed cell lines. The human L-FABP chromosomal gene was integrated into these cells on their chromosome without deletion. Using these cells, L-FABP up-regulating activity of test compounds were examined at RNA level and protein level in the following manner. Cells were cultured to become confluent, when the medium was replaced with serum-free DMEM medium, and test compounds were added to the medium at final concentration of 1 μM. The cultivation was continued at 37° C. Control sample was obtained without adding any test compounds. Measurement at mRNA level was carried out in the following manner. After cultivation, cells were collected and total RNA was prepared. […] Also, in order to normalize the measurement values, GAPDH (glyceraldehyde 3-phosphate dehydrogenase) mRNA was detected as control in the similar RT-PCR. The resulted PCR products were subjected to agarose-gel electrophoresis, the gel was stained with ethidium bromide to detect bands respectively and the expression amount was determined by densitometry, or visually.
# [3] = tested on: adriamycin-induced glomerular sclerosis mouse; experiment: Adriamycin-induced glomerular sclerosis model mouse (BALB/c); assay type: in vivo
# Description: An adriamycin-induced glomerular sclerosis mouse was used as a renal disease model to confirm effect of PPAR agonist MCC-555 in the following manner. An adriamycin(AD)-induced glomerular sclerosis mouse is a pathological model which develops focal glomerular sclerosis in 3 weeks after the onset of nephrosis symptom while showing the symptom and eventually results in irreversible chronic renal insufficiency (Chen et. al., Nephron, vol. 78, pp.440-452, 1998). As shown in Examples 3, 4 and 5, MCC-555 is a compound confirmed to have L-FABP up-regulating activity. In the experiment, 7-week-age female BALB/c mice (purchased from Charles River Japan, Inc.) were used. At the first day of experiment (Day 0), Adriamycin (Sigma) was administered intravenously at 10 mg/kg (10 ml/kg dissolved in saline at 1 mg/ml). Normal group received intravenously an equivalent amount of saline only. To the mice were administered orally MCC-555 or carrier alone for 14 days from the first day of experiment (Day 0 to Day 13). The administration was initially conducted 1 hour before the adriamycin administration, and administration volume was 10 ml/kg for each time. In drug administration group (n=6), MCC-555 (suspension in 0.1% Tween 80-containing purified water) was administered at a dose of 10 mg/kg to mice that have received adriamycin. In control group (n=6), carrier (0.1% Tween 80-containing purified water) alone was administered to mice that have received adriamycin. Also in normal group (n=3), mice received carrier alone. Mice were separately housed in “a metabolic cage” and allowed to access food and water ad libitum while collecting urine for 24 hours. Specifically, collection of urine was performed 4 times in total, i.e., day 3-4, day 6-7, day 9-10, and day 13-14. Following measurement of volume, the collected urine was subjected to determination of urinary protein, NAG (N-acetyl-β-D-glucosaminidase) and creatinine (CRE) concentrations by clinical chemistry analyzer (SuperZ-818, […] Co.) After the collection of urine on the last experiment day (Day 14), blood was collected via abdominal aorta under ethereal anesthetization and serum was separated. Cholesterol and albumin were determined using Automated clinical analyzer TBA-80FR (TOSHIBA). Also, kidneys were isolated and fixed with neutral buffered formalin.
# [4] = tested on: adriamycin-induced glomerular sclerosis hFABP-Tg mouse; experiment: Adriamycin-induced glomerular sclerosis model in transgenic mouse introduced with human L-FABP gene (hFABP-Tg mouse); assay type: in vivo; conditions: 10 mg/kg
# Description: Transgenic mouse (hFABP-Tg mouse) introduced with human L-FABP gene was prepared. The hFABP-Tg mouse was used to make renal disease model similar to that of Example 8 and the effect of MCC-555 was identified.
# In the preparation of hFABP-Tg mouse, male BCF1 mouse (13-week or over) was used for sterile mating and natural mating; female ICR mouse (10-week or over) for embryo transplant and as a foster mother; male BDF1 mouse (13-week or over) for mating; and female BCF1 mouse (8-week or over) for collection of eggs, respectively. The resultant transgenic mouse (B6C3F1 line) was used to backcross with BALB/c mouse.
# The resultant female transgenic mouse was used to prepare a renal disease model (adriamycin-induced glomerular sclerosis model) and to confirm effects of drug (MCC-555). The preparation of disease model and confirmation of effect of a drug were conducted in a similar manner to that described in Example 8 above except that the dose of adriamycin on the first experiment day (Day 0) was 15 mg/kg (15 ml/kg, dissolved in saline at concentration of 1 mg/ml).
# In drug administration group (n=5), MCC-555 (10 mg/kg) was administered to mice that have received adriamycin, and in control group (at the beginning of experiment, n=5), only carrier was administered to mice that have received adriamycin, In normal group (n=3), mice that were not treated with adriamycin received carrier. Collection of urine was performed 3 times in total, i.e., day 6-7 day (Day 7), day 10-11 (Day 11), and day 13-14 (Day 14) and urinary protein, NAG and creatinine concentrations were determined by Automated clinical analyzer after measurements of urine volume.
# [5] = adriamycin 15 mg/kg, Day 7, 11, 14, FIG. 9
SMILES,L-FABP mRNA [1],Induction of luciferase activity (L-FABP up-regulating activity) [2],Up-regulating effect on L-FABP protein expression (human L-FABP),Induction of L-FABP mRNA (human L-FABP mRNA),Histological changes of kidney (tissue imaging examination) ([3]; 10 mg/kg orally for 14 days),"NAG excretion (index of proximal renal tubular injury) ([3]; 10 mg/kg orally for 14 days (Day 0 to Day 13), adriamycin 10 mg/kg i.v., FIG. 7)","Proteinuria (urinary protein) ([3]; 10 mg/kg orally for 14 days, adriamycin 10 mg/kg i.v., FIG. 7)","Blood biochemical examination parameters (blood cholesterol and albumin level) ([3]; 10 mg/kg orally for 14 days, serum at Day 14, FIG. 8)","Increase of NAG excretion amount after AD administration [4, 5]","Increase of urinary protein after AD administration [4, 5]","Animals died during the experiment ([4]; n=5, in the control group 3 animals died)"
"CCCc1c(OCCCCCCc2nn[nH]n2)ccc(C(C)=O)c1O [4-THA, 2-hydroxy-3-propyl-4-[6-(tetrazol-5-yl)hexyloxy]acetophenone]",increased,–,–,–,–,–,–,–,–,–,–
"CCOC(=O)C1(CCCCCCOc2ccc(Cl)cc2)CO1 (stereo not shown) [Etomoxir, ethyl 2-[6-(4-chlorophenoxy)hexyl]oxiranecarboxylate]",–,Induction of luciferase activity was observed,also observed,–,–,–,–,–,–,–,–
"O=C1NC(=O)C(Cc2ccc3cc(OCc4ccccc4F)ccc3c2)S1 (stereo not shown) [MCC-555, 5-[6-(2-fluorobenzyloxy)naphthalene-2-ylmethyl]thiazolidine-2,4-dione]",–,Induction of luciferase activity was observed,up-regulating effect on L-FABP protein expression was observed,induction of L-FABP mRNA was observed,inhibited,suppressed,improved,improved,significantly suppressed,significantly suppressed,no animals died
